Measurements: US20150265621A1, “Treating Bronchiectasis With Doxofylline and Erdosteine” (Alitair Pharmaceuticals, Inc., priority 2014, published 2015)
Read-outs that look alike come from different tables or passages of the source.

What was measured:
[1] = tested on: bronchiectasis patients with mucus hypersecretion; conditions: Buquan; erdosteine 300 mg BID + PCT up to 15 days; 30 subjects; cited from earlier work
[2] = tested on: bronchiectasis patients with mucus hypersecretion; conditions: Yipin; erdosteine 300 mg BID + PCT up to 15 days; 40 subjects; cited from earlier work
[3] = tested on: bronchiectasis patients with mucus hypersecretion; conditions: cited from earlier work
[4] = tested on: bronchiectasis patients with mucus hypersecretion; conditions: Crisafulli; erdosteine 300 mg BID + PCT up to 15 days; 15 subjects; cited from earlier work
[5] = tested on: bronchiectasis patients with mucus hypersecretion; experiment: Summary (mean, weighted mean) of the three erdosteine bronchiectasis studies; format: in vivo, human; conditions: erdosteine 300 mg BID + PCT
Protocol: There are three published studies showing effectiveness of erdosteine in the treatment of bronchiectasis: Crisafulli et al (2007), Buquan and Xinke (2011) and Yipin (2012). The three studies have a total of 170 subjects, 85 of whom received standard care consisting of Percussive Chest Therapy (PCT) for up to 15 days. The remaining 85 received PCT plus treatment with erdosteine 300 mg BID for the same length of time. […] FEV1, FVC, PEF, MIP, MEP, PaO2 and PaCO2 measured according to test methods described by Mason et al, 2005. FEV1=forced expiratory volume in one second, measured in liters. FVC=forced vital capacity, total amount air the patient can expel in one breath, measured in liters. PEF=peak expiratory flow, measure in liters per second. MIP=maximum inhalation pressure. MEP=Maximum expiratory pressure. PaO2=partial pressure of oxygen. PaCO2=partial pressure of carbon dioxide. […] Again, the results are similar in terms of order of magnitude and consistent in showing an incremental benefit to adding erdosteine to PCT in bronchiectasis patients. […] The use of erdosteine with PCT produces significant and clinically meaningful changes in the respiratory functioning of patients with bronchiectasis and mucus hypersecretion as compared to PCT alone.

chronic asthma subjects = conditions: randomized clinical study; cited from earlier work
[6] = tested on: patients with theophylline overdose; conditions: cited from earlier work
CF patients = conditions: intravenous; cited from earlier work
[7] = tested on: adults with CT scan confirmed bronchiectasis; conditions: nebulized, vs placebo, cited from earlier work
[8] = weighted by % total subjects (18%, 47%, 35%)

Question: For `O=C(O)CSCC(=O)NC1CCSC1=O` (stereo not shown) [Erdo, erdosteine], which “FEV1 change vs baseline” value [1] is on record?
Answer: Its value is 0.19 L.

Question: What about the “FVC change vs baseline” value [1] of the same compound?
Answer: The value was 0.31 L.

Question: And the “MEP change vs baseline” value [1]?
Answer: Its value is 8.2 Kpa.

Question: And the “MIP change vs baseline” value [1]?
Answer: Its value is 8.1 kPa.

Question: And the “PEF change vs baseline” value [1]?
Answer: The value was 0.3 L/s.

Question: What about the “PaCO2 change vs baseline” value [1] of the same compound?
Answer: The value was 0.3 mm Hg.

Question: What about the “PaO2 change vs baseline” value [1] of the same compound?
Answer: The value was 5.2 mm Hg.

Question: And the “FEV1 change vs baseline” value [2]?
Answer: The value was 0.34 L.

Question: And the “FVC change vs baseline” value [2]?
Answer: The value was 0.43 L.

Question: And the “MEP change vs baseline” value [2]?
Answer: Its value is 11.3 Kpa.

Question: What about the “MIP change vs baseline” value [2] of the same compound?
Answer: Its value is 9.9 kPa.

Question: And the “PEF change vs baseline” value [2]?
Answer: Its value is 0.4 L/s.

Question: And the “PaCO2 change vs baseline” value [2]?
Answer: The value was 2.6 mm Hg.

Question: And the “PaO2 change vs baseline” value [2]?
Answer: The value was 6.3 mm Hg.

Question: And the “effect of erdosteine with PCT compared to PCT alone on respiratory functioning” value [3]?
Answer: The value was “significantly enhances the effect of PCT alone”.

Question: What about the “FEV1 change vs baseline” value [4] of the same compound?
Answer: Its value is 0.2 L.

Question: What about the “FVC change vs baseline” value [4] of the same compound?
Answer: The value was 0.3 L.

Question: And the “MEP change vs baseline” value [4]?
Answer: Its value is 8.4 Kpa.

Question: And the “MIP change vs baseline” value [4]?
Answer: The value was 8.9 kPa.

Question: And the “PEF change vs baseline” value [4]?
Answer: The value was 0.3 L/s.

Question: And the “PaCO2 change vs baseline” value [4]?
Answer: Its value is 0.1 mm Hg.

Question: And the “PaO2 change vs baseline” value [4]?
Answer: The value was 5.1 mm Hg.

Question: What about the “FEV1 change vs baseline, Mean” value ([5]; mean of the three studies) of the same compound?
Answer: Its value is 0.2 L.

Question: What about the “FVC change vs baseline, Mean” value ([5]; mean of the three studies) of the same compound?
Answer: The value was 0.3 L.

Question: What about the “MEP change vs baseline, Mean” value ([5]; mean of the three studies) of the same compound?
Answer: The value was 9.3 Kpa.

Question: What about the “MIP change vs baseline, Mean” value ([5]; mean of the three studies) of the same compound?
Answer: The value was 9 kPa.

Question: What about the “PEF change vs baseline, Mean” value ([5]; mean of the three studies) of the same compound?
Answer: The value was 0.3 L/s.

Question: And the “PaCO2 change vs baseline, Mean” value ([5]; mean of the three studies)?
Answer: Its value is 1.3 mm Hg.

Question: What about the “PaO2 change vs baseline, Mean” value ([5]; mean of the three studies) of the same compound?
Answer: The value was 5.5 mm Hg.

Question: And the “FEV1 change vs baseline, Wtd Mean Diff” value [5, 8]?
Answer: Its value is 0.26 L.

Question: What about the “FVC change vs baseline, Wtd Mean Diff” value [5, 8] of the same compound?
Answer: Its value is 0.36 L.

Question: And the “MEP change vs baseline, Wtd Mean Diff” value [5, 8]?
Answer: The value was 9.69 Kpa.

Question: What about the “MIP change vs baseline, Wtd Mean Diff” value [5, 8] of the same compound?
Answer: Its value is 9.09 kPa.

Question: And the “PEF change vs baseline, Wtd Mean Diff” value [5, 8]?
Answer: The value was 0.35 L/s.

Question: And the “PaCO2 change vs baseline, Wtd Mean Diff” value [5, 8]?
Answer: The value was 1.35 mm Hg.

Question: What about the “PaO2 change vs baseline, Wtd Mean Diff” value [5, 8] of the same compound?
Answer: The value was 5.70 mm Hg.

Question: For `Cn1c(=O)c2c(ncn2CC2OCCO2)n(C)c1=O` [doxofylline], which “effectiveness in treating chronic asthma compared to theophylline” value (chronic asthma subjects) is on record?
Answer: The value was “as effective as theophylline”.

Question: What about the “subjects dropped out of the study due to side effects” value (chronic asthma subjects) of the same compound?
Answer: The value was 11%.

Question: What does the source list for `Cn1c(=O)c2[nH]cnc2n(C)c1=O` [theophylline]?
Answer: patients treated in an emergency setting for overdose who die [6]: Ten; effect on FEV1 and FEF 0.75 (CF patients): positive results; subjects dropped out of the study due to side effects (chronic asthma subjects): 31%

Question: For `NC[C@H]1O[C@H](O[C@H]2[C@H](O)[C@@H](O[C@H]3O[C@H](CO)[C@@H](O)[C@H](N)[C@H]3O)[C@H](N)C[C@@H]2N)[C@H](N)C[C@@H]1O` [tobramycin], which “effect on FEV1” value ([7]; after four weeks of treatment) is on record?
Answer: Its value is “no effect”.

Question: And the “eradication of P. aeruginosa” value ([7]; four weeks of treatment)?
Answer: Its value is “significant effect”.
